Test results as given in the NIST ThermoML archive (doi:10.1016/j.fluid.2006.12.001).

Experiment: xn = mol fraction of the nth substance listed
Conditions: 303.2 K; 101 kPa; Liquid; Taylor dispersion method; x1 = 0
`CCCCn1cc[n+](C)c1.F[P-](F)(F)(F)(F)F` [1-butyl-3-methylimidazolium hexafluorophosphate] + O showed a binary diffusion coefficient of 1.25e-09 m2/s.
For `CCCCn1cc[n+](C)c1.F[B-](F)(F)F` [1-butyl-3-methylimidazolium tetrafluoroborate] + O, the binary diffusion coefficient was 1.3e-09 m2/s.
In the case of `CCn1cc[n+](C)c1.F[P-](F)(F)(F)(F)F` [1-ethyl-3-methylimidazolium hexafluorophosphate] + O, the binary diffusion coefficient was 1.41e-09 m2/s.
With `CCn1cc[n+](C)c1.F[B-](F)(F)F` [1-ethyl-3-methylimidazolium tetrafluoroborate] + O the binary diffusion coefficient was 1.52e-09 m2/s.
With `CCCCCCn1cc[n+](C)c1.F[P-](F)(F)(F)(F)F` [1-hexyl-3-methylimidazolium hexafluorophosphate] + O the binary diffusion coefficient was 1.11e-09 m2/s.
Compound `CCCCCCn1cc[n+](C)c1.F[B-](F)(F)F` [1-hexyl-3-methylimidazolium tetrafluoroborate] + O has a binary diffusion coefficient of 1.24e-09 m2/s.
For `CCCCCCCC[n+]1ccn(C)c1.F[B-](F)(F)F` [1-methyl-3-octylimidazolium tetrafluoroborate] + O, the binary diffusion coefficient was 1.14e-09 m2/s.
Compound `CCCCCCCC[n+]1ccn(C)c1.F[P-](F)(F)(F)(F)F` [1-octyl-3-methylimidazolium hexafluorophosphate] + O has a binary diffusion coefficient of 1.06e-09 m2/s.
